Assays:
PDIA1 [1] = target: T1, PDIA1 (Homo sapiens, UniProt P07237); experiment: Glutathione reduction assay (di-E-GSSG), disulfide reductase activity; type: biochemical; settings: di-E-GSSG substrate, PDIA1 20 nM, reducing conditions
T1 construct: The mature human PDIA1 with an N-terminal His6x-tag was expressed and purified; His6 (N); made in house
Method: (§1) The enzymatic activity of PDIA proteins was evaluated by glutathione reduction and insulin turbidity assays. PDIA1 and PDIA3 are proteins capable of catalyzing oxidation-reduction and isomerization reactions through thiol groups and disulfide bonds. Because the action of punicalagin on the reductase activity of the two proteins was previously evaluated by glutathione reduction assay, the same assay was repeated using punicalin to compare the effect of both molecules on PDIs.
(§2) Di-eosin glutathione disulfide (di-E-GSSG) was synthesized by the reaction of eosin isothiocyanate with oxidized glutathione (GSSG) and used as a fluorogenic substrate of PDIs to monitor disulfide reductase activity according to the method of Raturi and Mutus, with some modifications. Protein activity was evaluated by monitoring the emission fluorescence increase (λem = 545 nm and λex = 525 nm), and the effect of punicalin (concentration ranging from 2 to 50 µM) was tested.
(§3) In both assays, the inhibition constants were extrapolated by GraphPad Prism 8.0 software (GraphPad Software, San Diego, CA, USA), plotting the obtained data as logarithm dose–response curves.

PDIA3 [2] = target: T2, PDIA3 (Homo sapiens, UniProt P30101); experiment: as above; type: biochemical; settings: di-E-GSSG substrate, PDIA3 20 nM, reducing conditions
T2 construct: The mature recombinant form (devoid of the N-terminal presence) of the human PDIA3 protein was expressed and purified; made in house
T2 sequence (P30101 25-505): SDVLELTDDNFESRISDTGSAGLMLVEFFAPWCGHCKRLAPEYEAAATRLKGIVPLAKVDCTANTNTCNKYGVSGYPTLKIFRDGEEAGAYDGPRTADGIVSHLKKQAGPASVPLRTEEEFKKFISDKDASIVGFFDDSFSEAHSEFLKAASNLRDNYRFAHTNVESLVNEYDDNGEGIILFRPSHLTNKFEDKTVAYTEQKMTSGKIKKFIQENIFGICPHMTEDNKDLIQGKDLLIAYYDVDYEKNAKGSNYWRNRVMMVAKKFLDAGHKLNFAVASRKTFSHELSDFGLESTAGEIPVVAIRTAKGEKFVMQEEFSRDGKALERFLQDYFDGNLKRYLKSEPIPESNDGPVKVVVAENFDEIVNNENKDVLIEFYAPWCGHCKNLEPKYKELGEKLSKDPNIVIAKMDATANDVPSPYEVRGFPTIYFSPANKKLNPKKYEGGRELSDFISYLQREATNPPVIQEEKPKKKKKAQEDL
Method: as §1, §2, §3

PDIA1 [3] = target: T1, PDIA1; experiment: Differential scanning fluorimetry (protein thermal shift); type: binding; settings: PDIA1, compound 20 µM
Method: (§4) The effect of punicalin and punicalagin on the stability of both proteins was evaluated by differential scanning fluorimetry (DSF). Initially, PDIA1 and PDIA3 were incubated at 25 °C for 20 min with both substances at 5 µM and 20 µM concentrations. […] The reading was optimized at intervals of 0.2 °C every 5 s. Once the fluorescence profile was obtained, the data were analyzed with the GraphPad prism program, by either fitting data with a Boltzmann equation or calculating the first derivative. In DSF analyses, a gradual increase in fluorescence is observed, due to a conformational change in the protein, which reaches a maximum value and then decreases because of protein precipitation.
(§5) To evaluate Tm, we focused the attention on the main transition, and thus we fitted, with a Boltzmann equation, the data in the range of 25–55 °C for PDIA3 and in the range of 45–70 °C for PDIA1. Again, the two substances show a destabilizing effect, which was more evident for PDIA3 than for PDIA1. In fact, punicalagin and punicalin at a 20 µM concentration cause a shift of Tm of at least 6 °C in the case of PDIA3, while this is approximately 3 °C for PDIA1 (Figure 7).
(§6) Protein stability in the absence and presence of punicalagin/punicalin was tested by means of the fluorescence-based thermal stability assay or differential scanning fluorimetry (DSF) developed by Pantoliano and coworkers. DSF records the fluorescence emission signal from the binding of a dye (SYPRO orange) to the exposed hydrophobic patches upon protein unfolding. Fluorescence measurements were performed using a CFX96 Connect RT-PCR instrument (BioRad, Hercules, CA, USA). Aliquots of 18 μL of protein solution (2 μM), freshly diluted in Tris Buffered saline (50 mM TrisHCl, pH 8.0, 150 mM NaCl) containing 0.1 mM DTT, 0.2 mM EDTA, and 1: 1000 dilution of SYPRO Orange (50 mM stock solution in DMSO), were distributed in a 96-well plate. Sample wells were added with punicalagin or punicalin at a final concentration of 5 uM or 20 μM by adding 2 μL of a 10-fold concentrated freshly prepared stock solution. As control, the protein solution was added with 2 μL of the dilution buffer. A melting point analysis was recorded by increasing the temperature from 25 to 70 °C with an increment of 0.2 °C every 5 s and reading, at each temperature, the fluorescence in fluorescence resonance energy transfer mode (FRET). Each measure was the average of three sample well readings, and each DSF experiment was repeated at least three times. To calculate Tm values, DSF data from the melting curve were exported and fitted to a Boltzmann equation using GraphPad software. The effect of punicalagin and punicalin was evaluated comparing the Tm values in the presence and absence of each molecule.

PDIA3 [4] = target: T2, PDIA3; experiment: as above; type: binding
Method: as §4, §5, §6

T98G cells = experiment: Cell counting (crystal violet); type: cell-based, human
Method: The number of cells was evaluated after 24 h, 48 h, and 72 h of treatment with punicalin at the concentration of 5 µM and 20 µM (Figure 5b). […] However, an increase in the cell number occurred after 72 h of treatment with punicalin at a 5 µM concentration.
T98G and U-87 MG cells were seeded into 12-well plates (70,000 cells/well) and treated with 5 µM and 20 µM concentrations of punicalin for 24 h, 48 h, and 72 h. At the end of incubation, the cells were washed with PBS (Sigma-Aldrich, cat. D8662), fixed with cold methanol for 20 min, stained with 0.1% crystal violet in methanol/PBS (ratio 1:4) at room temperature for 1 h, and washed again in PBS. To estimate the number of cells remaining in each well, the crystal violet was solubilized by adding a methanol/water solution (50% v/v) and the absorbance at 595 nm was measured.

T1 sequence (P07237 18-508): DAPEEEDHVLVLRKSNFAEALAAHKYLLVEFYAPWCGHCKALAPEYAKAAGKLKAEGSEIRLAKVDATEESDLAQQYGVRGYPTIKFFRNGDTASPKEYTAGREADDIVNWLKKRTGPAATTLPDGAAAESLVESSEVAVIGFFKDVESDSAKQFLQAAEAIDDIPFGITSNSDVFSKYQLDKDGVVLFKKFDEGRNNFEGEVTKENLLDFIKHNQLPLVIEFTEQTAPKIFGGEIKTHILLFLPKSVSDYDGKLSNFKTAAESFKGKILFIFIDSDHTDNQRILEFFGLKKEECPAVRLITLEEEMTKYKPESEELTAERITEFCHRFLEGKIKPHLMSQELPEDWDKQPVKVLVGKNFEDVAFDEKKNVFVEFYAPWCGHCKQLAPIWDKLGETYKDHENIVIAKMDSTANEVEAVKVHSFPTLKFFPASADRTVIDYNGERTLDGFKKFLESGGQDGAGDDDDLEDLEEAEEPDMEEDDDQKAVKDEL

O=C1OC[C@H]2OC(O)[C@H](O)[C@@H](O)[C@@H]2OC(=O)c2cc(O)c(O)c(O)c2-c2c(O)c(O)c3oc(=O)c4c(c(O)c(O)c5oc(=O)c2c3c54)-c2c1cc(O)c(O)c2O (mixture of isomers) [Punicalin, punicalin]
IC50 (PDIA1 [1]): 58.3 µM | IC50 (PDIA3 [2]): 10.7 µM | shift towards lower temperature of second main transition (first-derivative graph) (PDIA1 [3]): about 5 °C | shift of Tm (destabilizing, Boltzmann fit) (PDIA1 [3]; fit range 45–70 °C): approximately 3 °C | left shift of first transition (first-derivative graph) (PDIA3 [4]; PDIA3, compound 20 µM): about 3 °C | shift towards lower temperature of second transition (first-derivative graph) (PDIA3 [4]; PDIA3, compound 20 µM): more than 10 °C | shift of Tm (destabilizing, Boltzmann fit) (PDIA3 [4]; PDIA3, compound 20 µM, fit range 25–55 °C): at least 6 °C | Tm of PDIA3 after addition of compound (PDIA3 [4]; PDIA3 alone Tm 46 °C): below 40 °C | change in the thermal stability of PDIA3, shift (PDIA3 [4]; abstract statement): up to 8 °C | kind of effect on cells (T98G cells; 5 µM): preferential cytostatic effect | kind of effect on cells (T98G cells; 20 µM): cytotoxic | effect on cell number (T98G cells; 48 h, 5 µM and 20 µM): marked reduction in the T98G cell number
